According to US8563741B2, “CDK inhibitors containing a zinc binding moiety” (Curis, Inc., priority 2007, dated 2013):

Key:
HDAC = HDAC fluorimetric assay kit (AK-500, Biomol), HeLa nuclear extract; assay type: biochemical
Experimental: HDAC inhibitors were screened using an HDAC fluorimetric assay kit (AK-500, Biomol, Plymouth Meeting, Pa.). […] Each assay was setup as follows: Defrosted all kit components and kept on ice until use. Diluted HeLa nuclear extract 1:29 in Assay Buffer (50 mM Tris/Cl, pH 8.0, 137 mM NaCl, 2.7 mM KCl, 1 mM MgCl2). Prepared dilutions of Trichostatin A (TSA, positive control) and tested compounds in assay buffer (5× of final concentration). Diluted Fluor de LysTM Substrate in assay buffer to 100 uM (50 fold=2× final). Diluted Fluor de LysTM developer concentrate 20-fold (e.g. 50 μl plus 950 μl Assay Buffer) in cold assay buffer. Second, diluted the 0.2 mM Trichostatin A 100-fold in the 1× Developer (e.g. 10 μl in 1 ml; final Trichostatin A concentration in the 1× Developer=2 μM; final concentration after addition to HDAC/Substrate reaction=1 μM). Added Assay buffer, diluted trichostatin A or test inhibitor to appropriate wells of the microtiter plate. Added diluted HeLa extract or other HDAC sample to all wells except for negative controls. Allowed diluted Fluor de LysTM Substrate and the samples in the microtiter plate to equilibrate to assay temperature (e.g. 25 or 37° C. Initiated HDAC reactions by adding diluted substrate (25 μl) to each well and mixing thoroughly. Allowed HDAC reactions to proceed for 1 hour and then stopped them by addition of Fluor de LysTM Developer (50 μl). Incubated plate at room temperature (25° C.) for 10-15 min. Read samples in a microtiter-plate reading fluorimeter capable of excitation at a wavelength in the range 350-380 nm and detection of emitted light in the range 440-460 nm.

CDK2/cyclinE = molecular target: T1, CDK2/cyclinE (Homo sapiens, UniProt P24941); experiment: CDK activity assay with p33 ATP, CDK2/cyclinE; assay type: biochemical; conditions: 1 μM ATP
T1 construct: C-terminal 6His-tagged, recombinant full-length CDK2 (MW=34 kDa); 6His (C); made in house; host or cells: Sf21 cells (baculovirus)
Experimental: CDK2/cyclinE (Accession Number for CDK2; EMBL M68520, for cyclinE1; GenBank NM_001238):
C-terminal 6His-tagged, recombinant full-length CDK2 (MW=34 kDa) in complex with N-terminal GST-tagged, recombinant full-length cyclinE1 (MW=74 kDa) were expressed with baculovirus system in Sf21 cells. Recombinant proteins were purified using Ni2+/NTA agarose and the purity of recombinant protein complex was measured to be around 76% by SDS-PAGE and Coomassie blue staining. Specific Activity of recombinant CDK2/cyclinE was 1336 U/mg, where one unit of CDK2/cylinE1 activity is defined as 1 nmol phosphate incorporated into 0.1 mg/ml histone H1 per minute at 30° C. with a final ATP concentration of 100 μM. Enzyme was stored with concentration of 0.1 mg/ml in 50 mM Tris/HCl pH 7.5, 150 mM NaCl, 0.03% Brij-35, 0.1 mM EGTA, 0.2 mM PMSF, 1 mM benzamidine, 0.1% 2-mercaptoethanol, 270 mM sucrose.

SMILES	IC50 (HDAC)	IC50 (CDK2/cyclinE)	CDK2/cyclinE IC50 (CDK2/cyclinE)	melting point
CC(C)(C)c1cnc(CSc2cnc(NC(=O)C3CCN(CCCCCC(=O)NO)CC3)s2)o1 [Compound 3, N-(5-((5-tert-butyloxazol-2-yl)methylthio)thiazol-2-yl)-1-(6-(hydroxyamino)-6-oxohexyl)piperidine-4-carboxamide]	1 to 10 µM	< 0.1 µM		127 to 130 °C
CC(C)(C)c1cnc(CSc2cnc(NC(=O)c3ccc(OCCCCCC(=O)NO)cc3)s2)o1 [Compound 25, N-(5-((5-tert-butyloxazol-2-yl)methylthio)thiazol-2-yl)-4-(6-(hydroxyamino)-6-oxohexyloxy)benzamide]	0.1 to 1 µM	< 0.1 µM		
CC(C)(C)c1cnc(CSc2cnc(NC(=O)c3ccc(OCCCCC(=O)NO)cc3)s2)o1 [Compound 24, N-(5-((5-tert-butyloxazol-2-yl)methylthio)thiazol-2-yl)-4-(5-(hydroxyamino)-5-oxopentyloxy)benzamide]		< 0.1 µM		
CC(C)(C)c1cnc(CSc2cnc(NC(=O)c3ccc(OCCCC(=O)NO)cc3)s2)o1 [Compound 39]	0.1 to 1 µM	< 0.1 µM		
CC(C)(C)c1cnc(CSc2nnc(NC(=O)CCCCCCC(=O)NO)s2)o1 [Compound 22, N^1-(5-((5-tert-butyloxazol-2-yl)methylthio)-1,3,4-thiadiazol-2-yl)-N^8-hydroxyoctanediamide]		1 to 10 µM		
CC(C)(C)c1cnc(CSc2cnc(NC(=O)c3ccc(/C=C/C(=O)NO)cc3)s2)o1 [Compound 18, (E)-N-(5-((5-tert-butyloxazol-2-yl)methylthio)thiazol-2-yl)-4-(3-(hydroxylamino)-3-oxoprop-1-enyl)benzamide]	0.1 to 1 µM	< 0.1 µM		
CC(C)(C)c1cnc(CSc2cnc(NC(=O)Cc3ccc(OCCCCCC(=O)NO)cc3)s2)o1 [Compound 11]	0.1 to 1 µM	< 0.1 µM		
CC(C)(C)c1cnc(CSc2cnc(NC(=O)C3CCN(CCCC(=O)NO)CC3)s2)o1 [Compound 1, N-(5-((5-tert-butyloxazol-2-yl)methylthio)thiazol-2-yl)-1-(4-(hydroxyamino)-4-oxobutyl)piperidine-4-carboxamide]	> 10 µM	< 0.1 µM		176 to 180 °C
CC(C)(C)c1cnc(CSc2cnc(NC(=O)Cc3ccc(OCCCCC(=O)NO)cc3)s2)o1 [Compound 10, 5-(4-(2-(5-((5-tert-butyloxazol-2-yl)methylthio)thiazol-2-ylamino)-2-oxoethyl)phenoxy)-N-hydroxypentanamide]	0.1 to 1 µM	< 0.1 µM		
CC(C)(C)c1cnc(CSc2cnc(NC(=O)C3CCN(CCCCC(=O)NO)CC3)s2)o1 [Compound 2, N-(5-((5-tert-butyloxazol-2-yl)methylthio)thiazol-2-yl)-1-(5-(hydroxyamino)-5-oxopentyl)piperidine-4-carboxamide]	1 to 10 µM	< 0.1 µM		93 to 97 °C
CC(C)(C)c1cnc(CSc2cnc(NC(=O)Nc3ccc(OCCCC(=O)NO)cc3)s2)o1 [Compound 29, 4-(4-(3-(5-((5-Tert-butyloxazol-2-yl)methylthio)-thiazol-2-yl)ureido)phenoxy)-N-hydroxybutanamide]	0.1 to 1 µM	< 0.1 µM		
CC(C)(C)c1cnc(CSc2nnc(NC(=O)Cc3ccc(OCCCC(=O)NO)cc3)s2)o1 [Compound 30, 4-(4-(2-(5-((5-tert-butyloxazol-2-yl)methylthio)-1,3,4-thiadiazol-2-ylamino)-2-oxoethyl)phenoxy)-N-hydroxybutanamide]	0.1 to 1 µM	1 to 10 µM		
CC(C)(C)c1cnc(CSc2cnc(NC(=O)c3ccc(OCCCCCCC(=O)NO)cc3)s2)o1 [Compound 40]	0.1 to 1 µM	< 0.1 µM		
CC(C)(C)c1cnc(CSc2cnc(NC(=O)C(C)(C)c3ccc(OCCCC(=O)NO)cc3)s2)o1 [Compound 27, 4-(4-(1-(5-((5-Tert-butyloxazol-2-yl)methylthio)-thiazol-2-ylamino)-2-methyl-1-oxopropan-2-yl)phenoxy)-N-hydroxybutanamide]	0.1 to 1 µM	< 0.1 µM		
CC(C)(C)c1cnc(CSc2cnc(NC(=O)CCCNCCCCCCC(=O)NO)s2)o1 [Compound 17, 7-(4-(5-((5-tert-butyloxazol-2-yl)methylthio)-thiazol-2-ylamino)-4-oxobutylamino)-N-hydroxyheptanamide]	0.1 to 1 µM	< 0.1 µM		
CC(C)(C)c1cnc(CSc2cnc(NC(=O)C3CCN(CCCCCCC(=O)NO)CC3)s2)o1 [Compound 4, N-(5-((5-tert-butyloxazol-2-yl)methylthio)thiazol-2-yl)-1-(7-(hydroxyamino)-7-oxoheptyl)piperidine-4-carboxamide]	0.1 to 1 µM	< 0.1 µM		113 to 115 °C
CC(C)(C)c1cnc(CSc2cnc(NC(=O)Oc3ccc(OCCCC(=O)NO)cc3)s2)o1 [Compound 28, 4-(4-(hydroxyamino)-4-oxobutoxy)phenyl-5-((5-tert-butyloxazol-2-yl)methylthio)thiazol-2-ylcarbamate]		< 0.1 µM		

Next, values leading:

IC50 (HDAC)	IC50 (CDK2/cyclinE)	CDK2/cyclinE IC50 (CDK2/cyclinE)	melting point	SMILES
0.1 to 1 µM				CC(C)(C)c1cnc(CSc2cnc(NC(=O)CCCNCCCCCC(=O)NO)s2)o1 [Compound 16, 6-(4-(5-((5-tert-butyloxazol-2-yl)methylthio)-thiazol-2-ylamino)-4-oxobutylamino)-N-hydroxyhexanamide]
0.1 to 1 µM	< 0.1 µM			CC(Sc1cnc(NC(=O)Cc2ccc(OCCCC(=O)NO)cc2)s1)c1ncc(C(C)(C)C)o1 (centres unmarked) [Compound 26, 4-(4-(2-(5-(1-(5-Tert-butyloxazol-2-yl)ethylthio)-thiazol-2-ylamino)-2-oxoethyl)phenoxy)-N-hydroxybutanamide]
0.1 to 1 µM	< 0.1 µM			CC(C)(C)c1cnc(CSc2cnc(NC(=O)c3cccc(/C=C/C(=O)NO)c3)s2)o1 [Compound 19, (E)-N-(5-((5-tert-butyloxazol-2-yl)methylthio)-thiazol-2-yl)-3-(3-(hydroxylamino)-3-oxoprop-1-enyl)benzamide]
< 0.1 µM	< 0.1 µM			CC(C(=O)Nc1ncc(SCc2ncc(C(C)(C)C)o2)s1)c1ccc(OCCCC(=O)NO)cc1 (centres unmarked) [Compound 31, 4-(4-(1-(5-((5-Tert-butyloxazol-2-yl)methylthio)-thiazol-2-ylamino)-1-oxopropan-2-yl)phenoxy)-N-hydroxybutanamide]
0.1 to 1 µM		No		CC(C)(C)c1cnc(CSc2cnc(NS(=O)(=O)c3ccc(C(=O)NO)cc3)s2)o1 [Compound 33, 4-(N-(5-((5-tert-butyloxazol-2-yl)methylthio)-thiazol-2-yl)sulfamoyl)-N-hydroxybenzamide]
< 0.1 µM	1 to 10 µM			CC(C)(C)c1cnc(CSc2cnc(NS(=O)(=O)c3cccc(/C=C/C(=O)NO)c3)s2)o1 [Compound 32, (E)-3-(3-(N-(5-((5-tert-butyloxazol-2-yl)methylthio)thiazol-2-yl)sulfamoyl)phenyl)-N-hydroxyacrylamide]
< 0.1 µM	< 0.1 µM		93 to 95 °C	CC(C)(C)c1cnc(CSc2cnc(NC(=O)Cc3ccc(OCCC(=O)NO)cc3)s2)o1 [Compound 23, 3-(4-(2-(5-((5-tert-butyloxazol-2-yl)methylthio)-thiazol-2-ylamino)-2-oxoethyl)phenoxy)-N-hydroxypropanamide]
< 0.1 µM	< 0.1 µM			CC(C)(C)c1cnc(CSc2cnc(NCC3CCN(c4ncc(C(=O)NO)cn4)CC3)s2)o1 [Compound 21, 2-(4-((5-((5-tert-butyloxazol-2-yl)methylthio)-thiazol-2-ylamino)methyl)piperidin-1-yl)-N-hydroxypyrimidine-5-carboxamide]
< 0.1 µM		No		CC(C)(C)c1cnc(CSc2cnc(NS(=O)(=O)c3ccc(/C=C/C(=O)NO)cc3)s2)o1 [Compound 34, (E)-3-(4-(N-(5-((5-tert-butyloxazol-2-yl)methylthio)-thiazol-2-yl)sulfamoyl)phenyl)-N-hydroxyacrylamide]
